Patent US10406335B2, “Drug delivery systems and methods for treatment of prostate” (TARIS Biomedical LLC, priority 2012, dated 2019)

Experiments:
[1] = Oxaliplatin or cisplatin tissue uptake after intra-urinary bladder perfusion or IV bolus in rats; conditions: 6- or 24-hour continuous bladder perfusion; FIG. 10 and FIG. 11
[2] = system: prostate cancer; conditions: Phase 2 clinical studies; cited from earlier work
[3] = 14C gemcitabine tissue uptake after intra-urinary bladder perfusion or IV bolus in rats; format: in vivo, male Sprague Dawley rats
Experimental: The 6- and 24-hour continuous perfusions perfused 6.9 and 26.6 mg, respectively, of gemcitabine into the bladder. The single IV bolus included 5.0 mg of gemcitabine.
Blood (FIG. 8), urine, and tissue samples (e.g., bladder, prostate) (FIGS. 7 and 9) were collected and analyzed for gemcitabine content. The results are illustrated in FIGS. 7-9.

Row | SMILES | bladder concentrations [1] | efficacy in prostate cancer patients [2] | gemcitabine levels in bladder tissue ([3]; 6- or 24-hour continuous bladder perfusion (6.9 and 26.6 mg), sustained urine concentrations, FIG. 9) | concentration of gemcitabine in the bladder ([3]; 24 hours after a clinically relevant IV dose (5.0 mg bolus), compared with bladder perfusion, FIG. 9) | prostate gemcitabine tissue concentrations ([3]; after bladder perfusion, compared with IV administration, FIG. 7)
1 | O=C1[O][Pt]2([NH][C@@H]3CCCC[C@H]3[NH]2)[O]C1=O [oxaliplatin] | achieving therapeutic bladder concentrations | – | – | – | –
2 | Nc1ccn([C@@H]2O[C@H](CO)[C@@H](O)C2(F)F)c(=O)n1 [gemcitabine] | – | limited efficacy | at or exceed therapeutic concentrations | significantly lower concentration | substantially higher than those observed after IV administration
